According to US20240041042A1, “1-(PYRIDYL)-5-AZINYLPYRAZOLE DERIVATIVES, AND THEIR USE FOR CONTROL OF UNDESIRED PLANT GROWTH” (Bayer Aktiengesellschaft, priority 2020, published 2024):
Where two headings read alike, the source gives them in different places.

Columns and labels:
Format in all cases: in vivo
[1] = system: Abutilon theophrasti (ABUTH); test: Pre-emergence herbicidal action against ABUTH; settings: Dosage column 320 g/ha (title prints 3200 g/ha); scored visually after about 3 weeks; 100% = plants have died
Summary of the method: (§1)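 Read-out is visual percent damage relative to untreated pots, with 100% meaning dead plants and 0% meaning no difference, assessed roughly three weeks after treatment. Compounds were applied pre-emergence to the covering soil at up to 320 g/ha.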

[2] = system: Alopecurus myosuroides (ALOMY); test: Pre-emergence herbicidal action against ALOMY; settings: scored visually after about 3 weeks, 100% = plants have died
Summary of the method: as §1

[3] = system: Amaranthus retroflexus (AMARE); test: Pre-emergence herbicidal action against AMARE; settings: visual scoring after about 3 weeks vs untreated controls
Summary of the method: as §1

Avena fatua (AVEFA) [4] = test: Pre-emergence herbicidal action against AVEFA; settings: 320 g/ha, visual scoring after about 3 weeks vs untreated controls
Summary of the method: as §1

[5] = system: Digitaria sanguinalis (DIGSA); test: Pre-emergence herbicidal action against DIGSA
Summary of the method: as §1

[6] = system: Echinochloa crus-galli (ECHCG); test: Pre-emergence herbicidal action against ECHCG
Summary of the method: as §1

Lolium rigidum (LOLRI) [7] = test: Pre-emergence herbicidal action against LOLRI
Summary of the method: as §1

[8] = system: Matricaria inodora (MATIN); test: Pre-emergence herbicidal action against MATIN
Summary of the method: as §1

[9] = system: Pharbitis purpurea (PHBPU); test: Pre-emergence herbicidal action against PHBPU
Summary of the method: as §1

[10] = system: Polygonum convolvulus (POLCO); test: Pre-emergence herbicidal action against POLCO
Summary of the method: as §1

Setaria viridis (SETVI) [11] = test: Pre-emergence herbicidal action against SETVI
Summary of the method: as §1

[12] = system: Verconica persica (VERPE); test: Pre-emergence herbicidal action against VERPE
Summary of the method: as §1

Viola tricolor (VIOTR) [13] = test: Pre-emergence herbicidal action against VIOTR
Summary of the method: as §1

Zea mays (ZEAMX) [14] = settings: pre-emergence, 80 g/ha, crop plant compatibility, in comparison to untreated controls
Summary of the method: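 Scoring: visual, % of untreated control, about 3 weeks after a pre-emergence application to the soil surface. Application used WP or EC formulations diluted in water with 0.5% additive at 600 l/ha; dosage levels are marked by suffixes a, b and c.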

[15] = system: Abutilon theophrasti (ABUTH); test: Post-emergence herbicidal action against ABUTH; settings: visual rating about 3 weeks after treatment vs untreated controls (100% = plants have died, 0% = like control plants)
Summary of the method: (§2)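 Post-emergence greenhouse spray, one-leaf stage, 600 l/ha water plus 0.5% additive; WP or EC formulations; application rates 320 g/ha or lower. Visual % damage vs untreated controls at ~3 weeks.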

[16] = system: Alopecurus myosuroides (ALOMY); test: Post-emergence herbicidal action against ALOMY; settings: visual rating about 3 weeks after treatment vs untreated controls (100% = plants have died, 0% = like control plants)
Summary of the method: as §2

Avena fatua (AVEFA) [17] = test: Post-emergence herbicidal action against AVEFA; settings: visual rating about 3 weeks after treatment
Summary of the method: as §2

[18] = system: Digitaria sanguinalis (DIGSA); test: Post-emergence herbicidal action against DIGSA; settings: visual rating about 3 weeks after treatment
Summary of the method: as §2

[19] = system: Echinochloa crus-galli (ECHCG); test: Post-emergence herbicidal action against ECHCG
Summary of the method: as §2

Lolium rigidum (LOLRI) [20] = test: Post-emergence herbicidal action against LOLRI
Summary of the method: as §2

[21] = system: Polygonum convolvulus (POLCO); test: Post-emergence herbicidal action against POLCO
Summary of the method: as §2

Setaria viridis (SETVI) [22] = test: Post-emergence herbicidal action against SETVI
Summary of the method: as §2

[23] = system: Verconica persica (VERPE); test: Post-emergence herbicidal action against VERPE; settings: 320 g/ha, VERPE
Summary of the method: as §2

Viola tricolor (VIOTR) [24] = test: Post-emergence herbicidal action against VIOTR
Summary of the method: as §2

Zea mays (ZEAMX) [25] = settings: for Post-emergence action against ZEAMX in %: crop plant compatibility, effect vs untreated controls
Summary of the method: (§3)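 Percent effect on the crop was judged by eye against untreated controls, where 0% means like control and 100% means dead plants. Plants had been sprayed post-emergence at the one-leaf stage and then kept under optimum greenhouse conditions for about 3 weeks.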

[26] = system: Amaranthus retroflexus (AMARE); test: Post-emergence herbicidal action against AMARE; settings: 80 g/ha, visual rating about 3 weeks after treatment vs untreated controls (100% = plants have died, 0% = like control plants)
Summary of the method: as §2

[27] = system: Pharbitis purpurea (PHBPU); test: Post-emergence herbicidal action against PHBPU; settings: dosage 80 g/ha
Summary of the method: as §2

Oryza sativa (ORYSA) = settings: crop plant compatibility
Summary of the method: as §3

[28] = 80 g/ha, visual scoring after about 3 weeks vs untreated controls

C[C@@H](Oc1nn(-c2ncccc2F)c(-c2ccc(F)nc2)c1Br)C(=O)O [Example I-10]
100%: Pre-emergence action against ALOMY ([2]; 80 g/ha) | Pre-emergence action against ALOMY ([2]; 320 g/ha) | Pre-emergence action against AMARE in % ([3]; 80 g/ha) | Pre-emergence action against AMARE in % ([3]; 320 g/ha) | Pre-emergence action against AVEFA in % (Avena fatua (AVEFA) [4]) | Pre-emergence action against DIGSA in % [5, 28] | Pre-emergence action against DIGSA in % ([5]; dosage 320 g/ha) | Pre-emergence action against LOLRI in % (Lolium rigidum (LOLRI) [7]; dosage 80 g/ha) | Pre-emergence action against LOLRI in % (Lolium rigidum (LOLRI) [7]; dosage 320 g/ha) | Pre-emergence action against MATIN in % ([8]; dosage 320 g/ha) | Pre-emergence action against POLCO in % ([10]; dosage 80 g/ha) | Pre-emergence action against POLCO in % ([10]; dosage 320 g/ha) | Pre-emergence action against SETVI in % (Setaria viridis (SETVI) [11]; dosage 80 g/ha) | Pre-emergence action against SETVI in % (Setaria viridis (SETVI) [11]; dosage 320 g/ha) | Pre-emergence action against VERPE in % ([12]; dosage 320 g/ha) | Pre-emergence action against VIOTR in % (Viola tricolor (VIOTR) [13]; 320 g/ha, Viola tricolor) | Pre-emergence action against VIOTR in % (Viola tricolor (VIOTR) [13]; dosage 80 g/ha) | Post-emergence action against ALOMY in % ([16]; 80 g/ha) | Post-emergence action against ALOMY in % ([16]; 320 g/ha)
80%: Pre-emergence action against ABUTH [1] | Pre-emergence action against ECHCG in % ([6]; dosage 80 g/ha) | Pre-emergence action against MATIN in % ([8]; dosage 80 g/ha) | Pre-emergence action against VERPE in % ([12]; dosage 80 g/ha) | Post-emergence action against ABUTH in % ([15]; 320 g/ha) | Post-emergence action against AVEFA in % (Avena fatua (AVEFA) [17]; 80 g/ha) | Post-emergence action against ECHCG in % ([19]; dosage 320 g/ha) | Post-emergence action against POLCO in % ([21]; dosage 80 g/ha) | Post-emergence action against POLCO in % ([21]; dosage 320 g/ha) | Post-emergence action against SETVI in % (Setaria viridis (SETVI) [22]; dosage 80 g/ha) | Post-emergence action against SETVI in % (Setaria viridis (SETVI) [22]; dosage 320 g/ha) | Post-emergence action against VERPE in % [23] | Post-emergence action against VIOTR in % (Viola tricolor (VIOTR) [24]; 320 g/ha)
90%: Pre-emergence action against ECHCG in % ([6]; dosage 320 g/ha) | Pre-emergence action against PHBPU in % ([9]; dosage 80 g/ha) | Pre-emergence action against PHBPU in % ([9]; dosage 320 g/ha) | Post-emergence action against AVEFA in % (Avena fatua (AVEFA) [17]; 320 g/ha) | Post-emergence action against DIGSA in % ([18]; 80 g/ha) | Post-emergence action against DIGSA in % ([18]; 320 g/ha) | Post-emergence action against LOLRI in % (Lolium rigidum (LOLRI) [20]; dosage 80 g/ha) | Post-emergence action against LOLRI in % (Lolium rigidum (LOLRI) [20]; dosage 320 g/ha)
20%: Pre-emergence action against ZEAMX in % (Zea mays (ZEAMX) [14]) | Post-emergence action against ZEAMX in % (Zea mays (ZEAMX) [25]; 320 g/ha)
0%: Post-emergence action against ZEAMX in % (Zea mays (ZEAMX) [25]; 80 g/ha)

CN(C)S(=O)(=O)NC(=O)COc1nn(-c2ncccc2F)c(-c2ccc(F)nc2)c1Br [Example I-36]
80%: Pre-emergence action against ABUTH [1] | Pre-emergence action against POLCO in % ([10]; dosage 80 g/ha) | Post-emergence action against ABUTH in % ([15]; 80 g/ha) | Post-emergence action against AMARE in % [26] | Post-emergence action against PHBPU in % [27] | Post-emergence action against POLCO in % ([21]; dosage 80 g/ha) | Post-emergence action against SETVI in % (Setaria viridis (SETVI) [22]; dosage 80 g/ha)
100%: Pre-emergence action against ALOMY ([2]; 80 g/ha) | Pre-emergence action against ALOMY ([2]; 320 g/ha) | Pre-emergence action against AMARE in % ([3]; 320 g/ha) | Pre-emergence action against DIGSA in % [5, 28] | Pre-emergence action against DIGSA in % ([5]; dosage 320 g/ha) | Pre-emergence action against ECHCG in % ([6]; dosage 320 g/ha) | Pre-emergence action against LOLRI in % (Lolium rigidum (LOLRI) [7]; dosage 320 g/ha) | Pre-emergence action against MATIN in % ([8]; dosage 320 g/ha) | Pre-emergence action against PHBPU in % ([9]; dosage 320 g/ha) | Pre-emergence action against SETVI in % (Setaria viridis (SETVI) [11]; dosage 80 g/ha) | Pre-emergence action against SETVI in % (Setaria viridis (SETVI) [11]; dosage 320 g/ha) | Pre-emergence action against VERPE in % ([12]; dosage 320 g/ha) | Pre-emergence action against VIOTR in % (Viola tricolor (VIOTR) [13]; 320 g/ha, Viola tricolor) | Pre-emergence action against VIOTR in % (Viola tricolor (VIOTR) [13]; dosage 80 g/ha)
90%: Pre-emergence action against AVEFA in % (Avena fatua (AVEFA) [4]) | Pre-emergence action against POLCO in % ([10]; dosage 320 g/ha) | Post-emergence action against ALOMY in % ([16]; 80 g/ha) | Post-emergence action against DIGSA in % ([18]; 80 g/ha) | Post-emergence action against ECHCG in % ([19]; dosage 80 g/ha) | Post-emergence action against VIOTR in % (Viola tricolor (VIOTR) [24]; 80 g/ha)
20%: Post-emergence action against ZEAMX in % (crop plant compatibility) (Zea mays (ZEAMX) [25]; 20 g/ha, ZEAMX, effect in comparison to untreated controls)
0%: Pre-emergence action against ZEAMX in % (Zea mays (ZEAMX) [14]) | Post-emergence action against ORYSA in % (Oryza sativa (ORYSA); 20 g/ha, effect vs untreated controls) | Post-emergence action against ORYSA in % (Oryza sativa (ORYSA); 80 g/ha, effect in comparison to untreated controls)
